Data from patent US20020037872A1, “N6 heterocyclic 5' modified adenosine derivatives” (CV Therapeutics, Inc., priority 1999, published 2002).

Assays:
A2A AdoR = molecular target: T1, A2A AdoR (Cavia porcellus, UniProt P46616); experiment: Guinea pig isolated perfused heart: coronary vasodilation (coronary conductance); settings: guinea pig isolated perfused hearts; read-out: EC50 to cause coronary vasodilation
T1 construct: from tissue; host or cells: guinea pig isolated perfused heart
Experimental: (§1) Guinea pigs of either sex weighing 250-300 g were anesthetized with methoxyflurane and killed by cervical dislocation. The hearts were quickly removed and rinsed in ice-cold Krebs-Henseleit solution. The aorta was cannulated and the heart retrogradely perfused at a constant flow of 10 ml min^−1 with modified Krebs-Henseleit solution containing (mM): NaCL 117.9, KCl 4.8, CaCl2 2.5, MgSO4 1.18, KH2PO4 1.2, Na2EDTA 0.5, ascorbic acid 0.14, glucose 5.5, pyruvic acid (sodium salt) 2.0, and NaHCO3 25. The K—H solution was oxygenated with 95% oxygen and 5% CO2, pH 7.4, and temperature maintained at 36° C.
Coronary perfusion pressure was measured using a pressure transducer that was connected to the aortic cannula via a T-connector. Coronary perfusion pressure (in mmHg) was monitored throughout an experiment and recorded on a 4-channel Gould strip-chart recorder (Gould RS3400, Cleveland, Ohio, U.S.A.). Coronary conductance (in ml min^−1 mmHg^−1) was calculated as the ratio of coronary perfusion rate (10 ml min^−1) and perfusion pressure (mmHg).

A1 adenosine receptor = molecular target: T2, A1 adenosine receptor (Cavia porcellus, UniProt P47745); experiment: Guinea pig isolated perfused heart: S-H interval, heart rate, atrial MAP
T2 construct: The hearts were quickly removed and rinsed in ice-cold Krebs-Henseleit solution; from tissue; host or cells: guinea pig isolated perfused heart
T2 sequence (P47745 1-326): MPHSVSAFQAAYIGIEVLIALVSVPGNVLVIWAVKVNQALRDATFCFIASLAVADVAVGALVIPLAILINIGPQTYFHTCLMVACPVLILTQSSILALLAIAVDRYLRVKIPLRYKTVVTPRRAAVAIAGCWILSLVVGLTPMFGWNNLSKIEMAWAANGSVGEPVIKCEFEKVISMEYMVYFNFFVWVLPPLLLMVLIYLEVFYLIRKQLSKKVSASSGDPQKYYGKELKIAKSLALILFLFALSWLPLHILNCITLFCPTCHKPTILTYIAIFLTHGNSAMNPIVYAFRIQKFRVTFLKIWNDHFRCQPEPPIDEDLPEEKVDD
Experimental: as §1
Hearts were electrically paced at a cycle length of 290-300 ms (unless otherwise indicated) using a bipolar electrode placed on the right atrium or ventricle. The stimulator, an interval generator (Model 1830, WPI, Sarasota, Fla., U.S.A.) delivered stimuli through a stimulus isolation unit (Model 1880, WPI) as square wave pulses of 3 ms in duration and at least twice the threshold intensity. The stimulus-to-His bundle (S—H) interval was used as index of AV nodal conduction time and was measured on-line during constant atrial pacing from microcomputer with a DT-208 1A interface board (Axon Instruments, Burlingame, Calif., U.S.A.) In experiments to study the chronotropic effect (effect on heart rate) of A1 AdoR agonists, the hearts were allowed to beat spontaneously. An atrial electrogram was used to record the electrical activity of the atria and to measure the heart rate.
Monophasic action potentials (MAP) were recorded using a pressure contact silver-silver chloride electrode (Langendorf Probe, EP Technologies, Inc., Sunnyvale, Calif., U.S.A.) placed on the surface of the left atrium. […] Signals were considered adequate if they were stable for at least 5 min and the amplitudes of the MAPs exceeded 10 mV. The data were digitized at 2 kHz by a DT-2801A digitizing board (Data Translation, Marlboro, Mass., U.S.A.) and stored using the Snapshot data acquisition program (Snapshot Storage Scope, HEM Data Corp., Southfield, Mich., U.S.A.) for later analysis. The duration of the atrial monophasic action potential was measured at 90% repolarization (MAPD90), using the Snapshot program. After completion of dissection and instrumentation, the hearts were allowed to equilibrate for 30 min before the experiments were begun. Whenever the baseline and post-intervention (washout) values differed by more than 15% the data were discarded. Approximately 60-70% of the experiments conformed with this criteria.

T1 sequence (P46616 whole entry, the tested form may be a part): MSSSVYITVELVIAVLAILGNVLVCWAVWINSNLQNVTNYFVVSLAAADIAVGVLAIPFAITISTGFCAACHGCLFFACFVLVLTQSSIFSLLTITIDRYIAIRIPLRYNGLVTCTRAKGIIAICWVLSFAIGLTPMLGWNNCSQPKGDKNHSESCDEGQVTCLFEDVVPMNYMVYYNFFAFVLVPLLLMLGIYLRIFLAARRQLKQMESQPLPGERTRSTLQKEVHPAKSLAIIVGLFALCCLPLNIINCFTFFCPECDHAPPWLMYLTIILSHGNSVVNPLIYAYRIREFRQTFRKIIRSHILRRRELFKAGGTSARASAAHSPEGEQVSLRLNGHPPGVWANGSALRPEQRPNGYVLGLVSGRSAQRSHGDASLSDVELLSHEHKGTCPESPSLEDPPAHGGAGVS

CNC(=O)OC[C@H]1O[C@@H](n2cnc3c(N[C@@H]4CCOC4)ncnc32)[C@H](O)[C@@H]1O [Compound 6, (5-16[((3R)oxolan-3-yl)aminolpurin-9-yl)(3S,2R,4R,5R)-3,4dihydroxyoxolan-2yl)methoxyl-N-methylearboxamide]
EC50 (A2A AdoR): 31 ± 5.1 µM
agonist character at A1 AdoR (A1 adenosine receptor): true partial A1 AdoR agonist
antagonism of S-H interval prolongation caused by full agonist CPA (A1 adenosine receptor; Compound 6 2 and 10 μm, atrial cycle length 300 msec, FIG. 3): antagonizes the negative dromotropic effect
effect on atrial monophasic action potential (A1 adenosine receptor; FIG. 1 panel B): no effect
effect on AV nodal conduction time (S-H interval) (A1 adenosine receptor; FIG. 1 panel C): concentration-dependent and significant increase in AV nodal conduction time
second-degree AV block (A1 adenosine receptor; FIG. 1 panel C): without causing second-degree AV block at any concentration tested
EC50 (A1 adenosine receptor; guinea pig isolated perfused hearts, read-out: EC50 to prolong S-H interval (negative dromotropic effect)): 2.8 ± 1.3 µM
selectivity: S-H interval prolongation versus increase of coronary conductance (A1 adenosine receptor; ratio of potencies): at least 10 fold
effect on heart rate (chronotropic) (A1 adenosine receptor; spontaneously beating hearts, FIG. 1 panel A): did not slow heart rate
